From patent US9474744B2, “Beta-lactam compounds for treating diabetes” (STEM CELL MEDICINE LTD., priority 2011, dated 2016)

Legend:
CD4+ human T cells = assay: Human Autoimmune and Inflammatory Response Gene Array, anti-CD3-stimulated T cells with or without antibiotic; format: cell-based; settings: 120 min anti-CD3; for % increase by Amp: ampicillin 50 μg/ml
Method: T cells were purified from the peripheral bloods of healthy human donors (Blood Bank, Sheba Medical center). The whole blood was incubated (20 min, 22° C.) with RosetteSep™ human T cell enrichment mixture (StemCell Technologies, Vancouver, Canada). The remaining unsedimented cells were then loaded onto lymphocyte separation medium (ICN Biomedicals, Irvine, Calif.), isolated by density centrifugation, and washed with PBS. […] In a second round of purification, CD3^+ T cells were labeled for selection with a magnetically coupled mAb against CD4 (Miltenyi Biotec, Auburn, Calif.).
Human CD4 T cells were isolated as described, and incubated in 24 well plates (Nunc), 4×10^6 cells/ml with plate bound anti-human CD3 (OKT3) at 2 μg/ml. The stimulation was performed in RPMI medium supplemented with 0.1% BSA. […] RNA was extracted from samples and used to prepare probes for gene array in accord with the manufacturer's instructions (SuperArray Bioscience, Frederick, Md.). Adequate labeling of the probes was tested before hybridization. Three healthy donors were tested in stimulation with cefuroxime. The membranes were analyzed online with the Image Data Acquisition and Expression Analysis (SuperArray Bioscience).
The Human Autoimmune and Inflammatory Response Gene Array (SuperArray Bioscience corporation, Frederick, Md., USA) was used for analysis of gene expression by the T cells. This array contains 367 genes including cytokines, chemokines and their receptors, transcription factors and signaling proteins. […] Analysis of the results was performed using the GEArray analysis program. […] To verify the results detected by the gene array study, a panel of six genes was designed and tested by real-time PCR: CCR4, ACVR2, JAK1, STAT4, TLR2 and NFKBIE. The cDNA that was used was prepared from the same RNA used for the gene array experiment.

[1] = test system: encephalitogenic BP10 line; assay: Adoptive EAE: BP10 T-cell line stimulated in vitro with test substance, then injected into naive rats; format: in vivo, rat; settings: BP10 line stimulated 3 days with MBP in presence of 50 μg/ml antibiotic; 10^7 cells per rat
Method: Antigen-specific T-cell lines were established from lymph node cells that had been stimulated with myelin basic protein (MBP; 10 μg/ml) for 3 days in stimulation medium as described below. Following stimulation, the T-cell blasts were isolated on LYMPHOPREP™ (Nycomed Pharma, Oslo, Norway) and seeded in propagation medium. Propagation medium was identical to stimulation medium without autologous serum, but supplemented with fetal calf serum 10% and T-cell growth factors from the supernatant of Con A stimulated spleen cells 10% (Mor et al. (1990) J Clin Invest, 85, 1594-1598). Animals were injected intra-peritoneally with 107 MBP-stimulated T cells, following 6-8 cycles of in vitro stimulations. It is known that MBP-reactive lines undergo a reduction in pathogenicity after 6 or more in vitro stimulations. In some experiments the BP10 line was stimulated with phorbol myristate acetate (PMA; 50 ng/ml) and ionomycin (500 ng/ml) for 3 days in stimulation medium, without antigen-presenting cells.
Active EAE was induced by subcutaneous injection of 25 μg guinea-pig MBP (GpMBP) in complete Freund's adjuvant (CFA). […] Adoptive EAE was transferred by intra-peritoneal injection of guinea-pig MBP-activated cells of the BP10 line as described in Mor et al. (1993) J Clin Invest, 92, 2199-2206. […] Clinical scoring was: +1, paralysis of tail; +1.5, paresis of posterior paws and ataxia; +2, paraplegia; +3, paralysis extending to thoracic spine; +4, a moribund state.
Treatment with cefuroxime in vivo could affect many different host agents involved in EAE or AA as well as influencing the rats' bacterial flora. To test whether the antibiotic might directly modify the behavior of effector T cells, an encephalitogenic T-cell line was stimulated in the presence or absence of cefuroxime in vitro. The weakly encephalitogenic BP10 line was used, and was stimulated for 3 days with MBP in the presence or absence of cefuroxime (50 μg/ml). The activated T cells were then washed to remove the antibiotic, the T cells were injected intra-peritoneally into naïve recipient rats (10^7 per rat), and EAE was scored. The BP10 line at later stimulations was used, when its pathogenic potential is reduced, allowing to detect both suppression and enhancement of disease. […] To rule out antigen presenting cells (APC) as the target of the beta-lactam antibiotic, the encephalitogenic BP10 line was stimulated without APC using PMA (50 ng/ml) and Ionomycin (500 ng/ml) in the presence or absence of cefuroxime.
Additional beta-lactam antibiotics were tested for their effect on the adoptive transfer of EAE.
A control group was injected with the untreated line.

[2] = molecular target: T1, albumin of human CD3 T cells (Homo sapiens, UniProt P02768); assay: Western blot with Pen 9 antibody of antibiotic-treated human T cells; format: cell-based; settings: T cells activated by mitogen in presence of antibiotic
T1 construct: endogenous in cells; host or cells: primary human peripheral-blood T cells (CD3+, CD4+ or CD8+) from healthy donors
T1 sequence (P02768 25-609): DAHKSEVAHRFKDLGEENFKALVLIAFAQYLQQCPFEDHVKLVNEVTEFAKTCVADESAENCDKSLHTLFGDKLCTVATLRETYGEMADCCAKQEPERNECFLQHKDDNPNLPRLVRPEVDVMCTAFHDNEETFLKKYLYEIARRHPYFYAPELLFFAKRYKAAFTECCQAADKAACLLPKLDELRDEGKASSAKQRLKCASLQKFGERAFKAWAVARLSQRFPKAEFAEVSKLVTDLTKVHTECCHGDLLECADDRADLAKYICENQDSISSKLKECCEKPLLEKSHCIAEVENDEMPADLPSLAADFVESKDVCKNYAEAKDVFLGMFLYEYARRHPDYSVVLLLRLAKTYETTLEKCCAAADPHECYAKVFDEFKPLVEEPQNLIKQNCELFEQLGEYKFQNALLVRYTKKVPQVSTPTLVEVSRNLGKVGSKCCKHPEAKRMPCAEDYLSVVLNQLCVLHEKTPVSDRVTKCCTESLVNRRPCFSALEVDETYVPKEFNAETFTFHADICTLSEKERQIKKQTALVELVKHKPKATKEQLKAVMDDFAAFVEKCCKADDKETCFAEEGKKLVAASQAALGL
Method: Rat tissues were ground with a tissue grinder in lysis buffer. The homogenate was centrifuged 14000 g for 15 min in 4° C. and the supernatant was used for western blotting. The protein concentration was determined using the BIO-RAD DC™ protein assay (Bio-Rad laboratories, Hercules, Calif.). Following electrophoresis in SDS gel in a mini-gel apparatus (Bio-Rad), the gels were electro-transferred to nitrocellulose membranes (Schleicher and schuell, Dassel, Germany). The nitrocellulose membranes were washed with distilled water for 5 min, and then blocked for 60 min. using a blocking solution composed of 2% bovine serum albumin (Fraction V, Sigma, St. Louis Mo.), 2.5% milk powder (Bio-Rad), Tris (Sigma) pH 7.5 10 mM, NaCl 150 mM and 0.02% thimerosal (Sigma). After 3×10 min. washes in PBS/TWEEN® 20 (PBS/T; 0.02%, Sigma), primary antibodies (1/1000) were incubated with the membranes in PBS/TWEEN® for 60 min. Following another series of washes in PBS/T (3×10 min), the membranes were incubated with a secondary antibody (Peroxidase conjugated anti rabbit or anti mouse, IgG Jackson ImmunoResearch, West Grove, Calif.) at a 1/2500 dilution in 2% milk in PBS solution for 60 min. After another 3×10 min washes, the membranes were incubated with the ECL reagent (for 60 seconds) and exposed to X-ray film.

SMILES: CC1(C)S[C@@H]2[C@H](NC(=O)[C@H](N)c3ccccc3)C(=O)N2[C@H]1C(=O)O [ampicillin]
- number of the 57 cefuroxime-down-regulated genes that were up-regulated (CD4+ human T cells; 50 μg/ml): 56 genes
- % increase by Amp (CD4+ human T cells; gene ACTB): +196%
- % increase by Amp (CD4+ human T cells; gene ACVR1, A low expression): +53%
- % increase by Amp (CD4+ human T cells; gene ACVR2, A low expression): +85%
- % increase by Amp (CD4+ human T cells; gene CCL5): +25%
- % increase by Amp (CD4+ human T cells; gene CCL11): +107%
- % increase by Amp (CD4+ human T cells; gene CCR4): +31%
- % increase by Amp (CD4+ human T cells; gene CCR6): +83%
- % increase by Amp (CD4+ human T cells; gene CCR7): +43%
- % increase by Amp (CD4+ human T cells; gene CD28): +175%
- % increase by Amp (CD4+ human T cells; gene CD40LG): +67%
- % increase by Amp (CD4+ human T cells; gene CREBBP): +49%
- % increase by Amp (CD4+ human T cells; gene CXCL10): +25%
- % increase by Amp (CD4+ human T cells; gene EGR3): −25%
- % increase by Amp (CD4+ human T cells; gene GFI1): +10%
- % increase by Amp (CD4+ human T cells; gene HRAS, A low expression): −12%
- % increase by Amp (CD4+ human T cells; gene IL1B, A low expression): +64%
- % increase by Amp (CD4+ human T cells; gene IL2RB): +93%
- % increase by Amp (CD4+ human T cells; gene IL2RG, A low expression): +78%
- % increase by Amp (CD4+ human T cells; gene IL9R): No change
- % increase by Amp (CD4+ human T cells; gene IL16, A low expression): +14%
- % increase by Amp (CD4+ human T cells; gene IRAK1): +171%
- % increase by Amp (CD4+ human T cells; gene JAK1): +161%
- % increase by Amp (CD4+ human T cells; gene JUN): +65%
- % increase by Amp (CD4+ human T cells; gene LTA): +48.5%
- % increase by Amp (CD4+ human T cells; gene MAP2K4): +150%
- % increase by Amp (CD4+ human T cells; gene MAP3K1, A low expression): +63%
- % increase by Amp (CD4+ human T cells; gene MAP3K2): +93%
- % increase by Amp (CD4+ human T cells; gene MAP3K7): +124%
- % increase by Amp (CD4+ human T cells; gene MAPK9): +46%
- % increase by Amp (CD4+ human T cells; gene NFKB1): +31%
- % increase by Amp (CD4+ human T cells; gene NFKB2): +195%
- % increase by Amp (CD4+ human T cells; gene NFKBIE): +132%
- % increase by Amp (CD4+ human T cells; gene NFKBIL1): +191%
- % increase by Amp (CD4+ human T cells; gene PAK1): +111%
- % increase by Amp (CD4+ human T cells; gene PIN1): +105%
- % increase by Amp (CD4+ human T cells; gene RANBP5): +108%
- % increase by Amp (CD4+ human T cells; gene REL): +132%
- % increase by Amp (CD4+ human T cells; gene RFX5): +137%
- % increase by Amp (CD4+ human T cells; gene RFXAP): +131%
- % increase by Amp (CD4+ human T cells; gene SDF2): +71%
- % increase by Amp (CD4+ human T cells; gene SELL): +124%
- % increase by Amp (CD4+ human T cells; gene SMAD4): +85%
- % increase by Amp (CD4+ human T cells; gene SMAD7, A low expression): +34%
- % increase by Amp (CD4+ human T cells; gene SP3): +47%
- % increase by Amp (CD4+ human T cells; gene SRF): +58%
- % increase by Amp (CD4+ human T cells; gene STAT1): +85%
- % increase by Amp (CD4+ human T cells; gene STAT4): +11%
- % increase by Amp (CD4+ human T cells; gene STAT6): no change
- % increase by Amp (CD4+ human T cells; gene TGFBR3): +139%
- % increase by Amp (CD4+ human T cells; gene TGIF, A low expression): +72%
- % increase by Amp (CD4+ human T cells; gene TLR2, A low expression): +419%
- % increase by Amp (CD4+ human T cells; gene TNFRSF11, A low expression): +81%
- % increase by Amp (CD4+ human T cells; gene TNFα): +39%
- % increase by Amp (CD4+ human T cells; gene TRAF5, A low expression): +47%
- % increase by Amp (CD4+ human T cells; gene TRAF6, A low expression): +39%
- % increase by Amp (CD4+ human T cells; gene YY1): +152%
- severity of adoptive EAE in recipient rats [1]: did not increase the severity of EAE
- Pen 9 reactivity with lysates of antibiotic-treated T cells [2]: did not bind
